We go through 19 molecules from patent US8008303B2, “Biphenyl derivatives and their use in treating hepatitis C” (AstraZeneca AB, priority 2005, dated 2011).

In data set [1] the test system is HCV replicon cells Huh 9B. Briefly: HCV replicon assay (luciferase readout). Type of data set: cell-based. Here is the method: (§1) HCV replicon cells Huh 9B (ReBlikon), containing the firefly luciferase-ubiquitin-neomycin phosphotransferase fusion protein and EMCV-IRES driven HCV polyprotein with cell culture adaptive mutations.
Cells were cultured at 37° C. in a 5% CO2 environment and split twice a week on seeding at 2×10^6 cells/flask on day 1 and 1×10^6 3 days later. G418 at 0.5 mg/ml was added to the culture medium but not the assay medium.
The culture medium consisted of DMEM with […] glucose and glutamax (Gibco 61965-026) supplemented with 1× non-essential amino acids (Invitrogen 11140-035), penicillin (100 IU/ml)/streptomycin (100 μg/ml) (Invitrogen 15140-122), FCS (10%, 50 ml) and 1 mg/ml G418 (Invitrogen 10131-027) & 10% Australian foetal calf serum (Invitrogen 10099-141).
A flask of cells was trypsinised and a cell count carried out. Cells were diluted to 100,000 cells/ml and 100 μl of this used to seed one opaque white 96-well plate (for the replicon assay) and one flat-bottomed clear plate (for the tox assay) for every seven compounds to be tested for IC50. Wells G12 and H12 were left empty in the clear plate as the blank. Plates were then incubated at 37° C. in a 5% CO2 environment for 24 h.
(§2) On the following day compound dilutions are made up in medium at twice their desired final concentration in a clear round bottomed plate. All dilutions have a final DMSO concentration of 1%.
Once the dilution plate had been made up, controls and compounds were transferred to the assay plate (containing the cells) at 100 μl /well in duplicate plates. Exception: no compound was added to wells A1 and A2 of either plate and 100 μl of 1% DMSO was added to these instead. Plates were then incubated at 37° C. with 5% CO2 for 72 h.
At the end of the incubation time, the cells in the white plate were harvested by washing 23.5 mM beetle luciferin (Promega E1603), 26 mM ATP (Sigma 0-2060) in […] Tris buffer pH 7.8 aliquoted and stored at −80 C was thawed and diluted 1:50 in luciferase assay buffer (20 mM Tricine (Sigma T-0377), 1.07 mM magnesium carbonate hydroxide (Sigma M-5671), 0.1 mM EDTA (Sigma E-5134), 2.67 mM MgSO4 (BDH 101514Y), 33.3 mM dithiothreitol (Sigma 150460) pH 7.8).
The M injector of the microplate luminometer (Lmax, Molecular Devices) was primed with 5×300 μl injections of the diluted substrate. After 5-60 min incubation in lysis buffer at room temperature, a plate was inserted into the luminometer and 100 μl luciferase assay reagent was added by the injector on the luminometer. The signal was measured using a 1 second delay followed by a 4 second measurement programme.

Data set [2] relates to HCV replicon cells Huh 9B. The format is cell-based. How it is done: as §1
A flask of cells was trypsinised and a cell count carried out. […] Wells G12 and H12 were left empty in the clear plate as the blank. Plates were then incubated at 37° C. in a 5% CO2 environment for 24 h.
as §2
Exception: no compound was added to wells A1 and A2 of either plate and 100 μl of 1% DMSO was added to these instead. Plates were then incubated at 37° C. with 5% CO2 for 72 h.
The clear plate was stained with 100 μl 0.5% methylene blue in 50% ethanol at room temperature for 1 h, followed by solvation of the absorbed methylene blue in 100 μl per well of 1% lauroylsarcosine. Absorbance of the plate was measured on a microplate spectrophotometer (Molecular Devices) and the absorbance for each concentration of compound expressed as a proportion of the relative DMSO control.

[3] abbreviates: Hepatitis C virus, 72 h, concentration reducing replicon level (luciferase activity) by 50% vs untreated cell control, 72 h incubation.
Where [4] appears, read: concentration reducing total cell area by 50% relative to DMSO controls, methylene blue, absorbance 620 nm, 72 h incubation.

Where two headings read alike, the source gives them in different places.

As for `O=C(Nc1ccc(CN2CCS(=O)(=O)CC2)cc1)c1ccc(-c2cccc(NC(=O)C3CCC3)c2)cc1` [Example 169, 3′-(Cyclobutanecarbonyl-amino)-biphenyl-4-carboxylic acid [4-(1,1-dioxo-1lambda*6*-thiomorpholin-4-ylmethyl)-phenyl]-amide], the IC50 in data set [1] (setting [3]) was less than 1 µM. For the same molecule, the TD50 entry in data set [2] (setting [4]) is recorded as “* (* < 50 μM)”. `CS(=O)(=O)N1CCN(Cc2ccc(NC(=O)c3ccc(-c4cc(NC(=O)[C@H]5CCCN5)ccc4Cl)cc3)cc2)CC1` [Example 250, (R)-Pyrrolidine-2-carboxylic acid {6-chloro-4′-[4-(4-methanesulfonyl-piperazin-1-ylmethyl)-phenylcarbamoyl]-biphenyl-3-yl}-amide] gave an IC50 in data set [1] (setting [3]) of less than 1 µM. In addition, the TD50 result in data set [2] (setting [4]) is recorded as “* (* < 50 μM)”. Taken in the same sequence, the figures for `Cc1ccc(NC(=O)CCC2CCCCC2)cc1-c1ccc(C(=O)Nc2ccc(CN3CCS(=O)(=O)CC3)cc2)cc1` [Example 163, 5′-(3-Cyclohexyl-propionylamino)-2′-methyl-biphenyl-4-carboxylic acid [4-(1,1-dioxo-1lambda*6*-thiomorpholin-4-ylmethyl)-phenyl]-amide] were less than 1 µM and “* (* < 50 μM)”. The molecule `Cc1ccc(C(=O)Nc2ccc(N3CCOCC3)cc2)cc1-c1ccc(C(=O)NCc2cccc(C(F)(F)F)c2)cc1` [Example 10, 6-Methyl-biphenyl-3,4′-dicarboxylic acid 3-[(4-morpholin-4-yl-phenyl)-amide] 4′-(3-trifluoromethyl-benzylamide)] came in with an IC50 in data set [1] of 1 to 5 µM. The TD50 result in data set [2] is reported as “* (key: * < 50 μM; ** > 50 μM)”. Taken in the same sequence, the figures for `CS(=O)(=O)N1CCN(Cc2ccc(NC(=O)c3ccc(-c4cc(C(=O)Nc5ccc(N6CCOCC6)cc5)ccc4OC(F)(F)F)cc3)cc2)CC1` [Example 256, 6-Trifluoromethoxy-biphenyl-3,4′-dicarboxylic acid 4′-{[4-(4-methanesulfonyl-piperazin-1-ylmethyl)-phenyl]-amide} 3-[(4-morpholin-4-yl-phenyl)-amide]] were less than 1 µM and “* (key: * < 50 μM; ** > 50 μM)”.

On to `Cc1ccc(-c2noc(C3CCCCC3)n2)cc1-c1ccc(C(=O)Nc2ccc(CN3CCS(=O)(=O)CC3)cc2)cc1` [Example 206, 5′-(5-Cyclohexyl-[1,2,4]oxadiazol-3-yl)-2′-methyl-biphenyl-4-carboxylic acid [4-(1,1-dioxo-1lambda*6*-thiomorpholin-4-ylmethyl)-phenyl]-amide], for which the IC50 in data set [1] (setting [3]) was more than 5 µM. Besides, the TD50 result in data set [2] (setting [4]) is on record as “* (* < 50 μM)”. In the same order, the values of `Cc1ccc(NC(=O)C2CCCCC2)cc1-c1ccc(C(=O)Nc2ccc(CCN3CCS(=O)(=O)CC3)cc2)cc1` [Example 242, 5′-(Cyclohexanecarbonyl-amino)-2′-methyl-biphenyl-4-carboxylic acid {4-[2-(1,1-dioxo-1lambda*6*-thiomorpholin-4-yl)-ethyl]-phenyl}-amide] are 1 to 5 µM and “* (* < 50 μM)”. In data set [1], `Cc1ccc(CNC(=O)c2ccc(-c3cc(C(=O)Nc4ccc(N5CCOCC5)cc4)ccc3C)cc2)o1` [Example 14, 6-Methyl-biphenyl-3,4′-dicarboxylic acid 4′-[(5-methyl-furan-2-ylmethyl)-amide] 3-[(4-morpholin-4-yl-phenyl)-amide]] gave an IC50 of 1 to 5 µM. Further, the TD50 entry in data set [2] is recorded as “** (key: * < 50 μM; ** > 50 μM)”. Take `COc1cccc(NC(=O)c2ccc(-c3cc(NC(=O)c4ccc(N5CCOCC5)cc4)ccc3C)cc2)c1` [Example 91, 2′-Methyl-5′-(4-morpholin-4-yl-benzoylamino)-biphenyl-4-carboxylic acid (3-methoxy-phenyl)-amide]: in data set [1] (setting [3]), the IC50 was 1 to 5 µM. Further, in data set [2] (setting [4]), the TD50 entry is “** (** > 50 μM)”. Taken in the same sequence, the figures for `Cc1cccc(CNC(=O)c2ccc(-c3cc(NC(=O)c4ccc(N5CCOCC5)cc4)ccc3C)cc2)c1` [Example 89, 2′-Methyl-5′-(4-morpholin-4-yl-benzoylamino)-biphenyl-4-carboxylic acid 3-methyl-benzylamide] were 1 to 5 µM and “** (** > 50 μM)”.

Regarding `CC(=O)C(=O)Nc1ccc(C)c(-c2ccc(C(=O)Nc3ccc(CN4CCS(=O)(=O)CC4)cc3)cc2)c1` [Example 190, 2′-Methyl-5′-(2-oxo-propionylamino)-biphenyl-4-carboxylic acid [4-(1,1-dioxo-1lambda*6*-thiomorpholin-4-ylmethyl)-phenyl]-amide], the IC50 in data set [1] (setting [3]) is less than 1 µM. In addition, the TD50 entry in data set [2] (setting [4]) is listed as “* (* < 50 μM)”.

As to `Cc1ccc(C(=O)Nc2ccc(N3CCOCC3)cc2)cc1-c1ccc(NC(=O)c2ccc(CN3CCOCC3)cc2)cc1` [Example 118, 6-Methyl-4′-(4-morpholin-4-ylmethyl-benzoylamino)-biphenyl-3-carboxylic acid (4-morpholin-4-yl-phenyl)-amide], in data set [1] (setting [3]), the IC50 is more than 5 µM. For the same molecule, the TD50 result in data set [2] (setting [4]) is given as “* (* < 50 μM)”. Taken in the same sequence, the figures for `Cc1ccc(NC(=O)c2ccc(N3CCOCC3)cc2)cc1-c1ccc(C(=O)Nc2ccc(Br)c(Cl)c2)cc1` [Example 90, 2′-Methyl-5′-(4-morpholin-4-yl-benzoylamino)-biphenyl-4-carboxylic acid (4-bromo-3-chloro-phenyl)-amide] were more than 5 µM and “** (** > 50 μM)”.

`Cc1ccc(C(=O)Nc2ccc(N3CCOCC3)cc2)cc1-c1ccc(C(=O)Nc2ccc3cn[nH]c3c2)cc1` [Example 12, 6-Methyl-biphenyl-3,4′-dicarboxylic acid 4′-[(1H-indazol-6-yl)-amide] 3-[(4-morpholin-4-yl-phenyl)-amide]] registered an IC50 in data set [1] of 1 to 5 µM. For the same molecule, in data set [2], the TD50 result is listed as “** (key: * < 50 μM; ** > 50 μM)”.

`O=C(Nc1ccc(CN2CCS(=O)(=O)CC2)cc1)c1ccc(-c2cc(NC(=O)C3CCCCC3)ccc2F)cc1` [Example 191, 5′-(Cyclohexanecarbonyl-amino)-2′-fluoro-biphenyl-4-carboxylic acid [4-(1,1-dioxo-1lambda*6*-thiomorpholin-4-ylmethyl)-phenyl]-amide] registered an IC50 in data set [1] (setting [3]) of more than 5 µM. In data set [2] (setting [4]), the TD50 entry was “* (* < 50 μM)”. Molecule `Cc1ccc(C(=O)NCc2cccc(F)c2)cc1-c1ccc(C(=O)Nc2ccc(CN3CCS(=O)(=O)CC3)cc2)cc1` [Example 123, 6-Methyl-biphenyl-3,4′-dicarboxylic acid 4′-{[4-(1,1-dioxo-1lambda*6*-thiomorpholin-4-ylmethyl)-phenyl]-amide} 3-(3-fluoro-benzylamide)] displayed an IC50 in data set [1] of less than 1 µM. The TD50 entry in data set [2] was “* (key: * < 50 μM; ** > 50 μM)”. Molecule “6-Methyl-biphenyl-3,4′-dicarboxylic acid 4′-[(1H-indol-6-yl)-amide] 3-[(4-morpholin-4-yl-phenyl)-amide] [Example 44]” displayed an IC50 in data set [1] (concentration reducing replicon level (luciferase activity) by 50% vs untreated cell control, 72 h incubation) of less than 1 µM.

On to `Cc1ccc(CNc2ccc3cn[nH]c3c2)cc1-c1ccc(C(=O)Nc2ccc(CN3CCS(=O)(=O)CC3)cc2)cc1` [Example 201, 5′-[(1H-Indazol-6-ylamino)-methyl]-2′-methyl-biphenyl-4-carboxylic acid [4-(1,1-dioxo-1lambda*6*-thiomorpholin-4-ylmethyl)-phenyl]-amide], for which the TD50 entry in data set [2] (setting [4]) is recorded as “* (* < 50 μM)”. “6-Methoxy-biphenyl-3,4′-dicarboxylic acid 4′-{[4-(1,1-dioxo-1lambda*6*-thiomorpholin-4-ylmethyl)-phenyl]-amide} 4′{[4-(4-methanesulfonyl-piperazin-1-ylmethyl)-phenyl]-amide} [Example 262]”: the IC50 in data set [1] was less than 1 µM.
